What was measured:
Mus musculus [1] = assay: Effect on 8-OH-DPAT-induced hypothermia in mice (5 mg/kg) at intraperitoneal dosage of 2 mg/kg of compound after 30 mins; type: functional
Rattus norvegicus [2] = assay: Tested for the effect on 8-OH-DPAT-induced lower lip retraction (LLR) in rat at dosage of 8 mg/kg; type: functional
Mus musculus [3] = assay: Effect on body temperature in mice at intraperitoneal dosage of 4 mg/kg, (compound administered 30 min before the test) after 45 min; type: functional
Rattus norvegicus [4] = assay: Tested for the effect on 8-OH-DPAT-induced behavior in reserpine pretreated rat against flat body posture at dosage of 4 mg/kg; type: functional
Rattus norvegicus [5] = assay: Tested for the effect on 8-OH-DPAT-induced behavior in reserpine pretreated rat against flat body posture at dosage of 8 mg/kg; type: functional
Mus musculus [6] = assay: Effect on body temperature in mice at intraperitoneal dosage of 1 mg/kg, (compound administered 30 min before the test) after 45 min; type: functional
[7] = biological target: Serotonin 2 (5-HT2) receptor (Rattus norvegicus, UniProt P30994+P08909+P14842); assay: Tested in vitro for receptor binding affinity against 5-hydroxytryptamine 2 receptor using radioligand [3H]ketanserin; type: protein assay
Mus musculus [8] = assay: Effect on 8-OH-DPAT-induced hypothermia in mice (5 mg/kg) at intraperitoneal dosage of 4 mg/kg of compound after 15 mins; type: functional
Mus musculus [9] = assay: Effect on 8-OH-DPAT-induced hypothermia in mice (5 mg/kg) at intraperitoneal dosage of 1 mg/kg of compound after 30 mins; type: functional
Mus musculus [10] = assay: Effect on 8-OH-DPAT-induced hypothermia in mice (5 mg/kg) at intraperitoneal dosage of 8 mg/kg of compound after 60 mins; type: functional
Mus musculus [11] = assay: Effect on 8-OH-DPAT-induced hypothermia in mice (5 mg/kg) at intraperitoneal dosage of 8 mg/kg of compound after 30 mins; type: functional
Mus musculus [12] = assay: Effect on 8-OH-DPAT-induced hypothermia in mice (5 mg/kg) at intraperitoneal dosage of 2 mg/kg of compound after 45 mins; type: functional
Rattus norvegicus [13] = assay: Tested for the induction of lower lip retraction (LLR) by the investigated compounds in rat at dosage of 4 mg/kg; type: functional
Mus musculus [14] = assay: Effect on body temperature in mice at intraperitoneal dosage of 4 mg/kg, (compound administered 30 min before the test) after 90 min; type: functional
Mus musculus [15] = assay: Effect on body temperature in mice at intraperitoneal dosage of 2 mg/kg, (compound administered 30 min before the test) after 60 min; type: functional
Mus musculus [16] = assay: Effect on body temperature in mice at intraperitoneal dosage of 2 mg/kg, (compound administered 30 min before the test) after 90 min; type: functional
Rattus norvegicus [17] = assay: Tested for the induction of lower lip retraction (LLR) by the investigated compounds in rat at dosage of 8 mg/kg; type: functional
Mus musculus [18] = assay: Effect on body temperature in mice at intraperitoneal dosage of 4 mg/kg, (compound administered 30 min before the test) after 75 min; type: functional
Mus musculus [19] = assay: Effect on body temperature in mice at intraperitoneal dosage of 8 mg/kg, (compound administered 30 min before the test) after 45 min; type: functional
Mus musculus [20] = assay: Effect on 8-OH-DPAT-induced hypothermia in mice (5 mg/kg) at intraperitoneal dosage of 4 mg/kg of compound after 30 mins; type: functional
Mus musculus [21] = assay: Effect on 8-OH-DPAT-induced hypothermia in mice (5 mg/kg) at intraperitoneal dosage of 4 mg/kg of compound after 45 mins; type: functional
Rattus norvegicus [22] = assay: Tested for the effect on 8-OH-DPAT-induced behavior in reserpine pretreated rat against forepaw treading at dosage of 16 mg/kg; type: functional
Mus musculus [23] = assay: Effect on body temperature in mice at intraperitoneal dosage of 1 mg/kg, (compound administered 30 min before the test) after 75 min; type: functional
Rattus norvegicus [24] = assay: Tested for the effect on 8-OH-DPAT-induced behavior in reserpine pretreated rat against flat body posture at dosage of 16 mg/kg; type: functional
Rattus norvegicus [25] = assay: Tested for the effect on 8-OH-DPAT-induced behavior in reserpine pretreated rat against forepaw treading at dosage of 4 mg/kg; type: functional
Rattus norvegicus [26] = assay: Tested for the induction of lower lip retraction (LLR) by the investigated compounds in rat at dosage of 2 mg/kg; type: functional
Mus musculus [27] = assay: Effect on 8-OH-DPAT-induced hypothermia in mice (5 mg/kg) at intraperitoneal dosage of 1 mg/kg of compound after 60 mins; type: functional
Mus musculus [28] = assay: Effect on body temperature in mice at intraperitoneal dosage of 2 mg/kg, (compound administered 30 min before the test) after 75 min; type: functional
Mus musculus [29] = assay: Effect on 8-OH-DPAT-induced hypothermia in mice (5 mg/kg) at intraperitoneal dosage of 4 mg/kg of compound after 60 mins; type: functional
Mus musculus [30] = assay: Effect on body temperature in mice at intraperitoneal dosage of 8 mg/kg, (compound administered 30 min before the test) after 30 min; type: functional
Rattus norvegicus [31] = assay: Tested for the effect on 8-OH-DPAT-induced lower lip retraction (LLR) in rat at dosage of 4 mg/kg; type: functional
Rattus norvegicus [32] = assay: Tested for the effect on 8-OH-DPAT-induced lower lip retraction (LLR) in rat at dosage of 2 mg/kg; type: functional
Mus musculus [33] = assay: Effect on body temperature in mice at intraperitoneal dosage of 2 mg/kg, (compound administered 30 min before the test) after 45 min; type: functional
Mus musculus [34] = assay: Effect on body temperature in mice at intraperitoneal dosage of 1 mg/kg, (compound administered 30 min before the test) after 60 min; type: functional
Rattus norvegicus [35] = assay: Tested for the induction of lower lip retraction (LLR) by the investigated compounds in rat at dosage of 16 mg/kg; type: functional
Mus musculus [36] = assay: Effect on body temperature in mice at intraperitoneal dosage of 8 mg/kg, (compound administered 30 min before the test) after 90 min; type: functional
Mus musculus [37] = assay: Effect on 8-OH-DPAT-induced hypothermia in mice (5 mg/kg) at intraperitoneal dosage of 8 mg/kg of compound after 45 mins; type: functional
Mus musculus [38] = assay: Effect on 8-OH-DPAT-induced hypothermia in mice (5 mg/kg) at intraperitoneal dosage of 2 mg/kg of compound after 15 mins; type: functional
Mus musculus [39] = assay: Effect on 8-OH-DPAT-induced hypothermia in mice (5 mg/kg) at intraperitoneal dosage of 8 mg/kg of compound after 15 mins; type: functional

Ki [7]: 1.04 µM
Compound: COc1ccccc1N1CCN(CCCn2nnc3ccccc32)CC1
Delta t (Mus musculus [1]): 0.2 °C | LLR score (Rattus norvegicus [2]): 0.7 | Delta t (Mus musculus [3]): 0.2 °C | Behavioral score (Rattus norvegicus [4]): 11.5 | Behavioral score (Rattus norvegicus [5]): 8 | Delta t (Mus musculus [6]): 0.1 °C | Delta t (Mus musculus [8]): 0.3 °C | Delta t (Mus musculus [9]): 1.1 °C | Delta t (Mus musculus [10]): 0.6 °C | Delta t (Mus musculus [11]): 0.4 °C | Delta t (Mus musculus [12]): 0.1 °C | LLR score (Rattus norvegicus [13]): 0 | Delta t (Mus musculus [14]): 0.2 °C | Delta t (Mus musculus [15]): 0.2 °C | Delta t (Mus musculus [16]): 0.1 °C | LLR score (Rattus norvegicus [17]): 0.1 | Delta t (Mus musculus [18]): 0 °C | Delta t (Mus musculus [19]): 0.2 °C | Delta t (Mus musculus [20]): 0.1 °C | Delta t (Mus musculus [21]): 0 °C | Behavioral score (Rattus norvegicus [22]): 2.6 | Delta t (Mus musculus [23]): 0 °C | Behavioral score (Rattus norvegicus [24]): 6.1 | Behavioral score (Rattus norvegicus [25]): 5.8 | LLR score (Rattus norvegicus [26]): 0.1 | Delta t (Mus musculus [27]): 0.3 °C | Delta t (Mus musculus [28]): 0.2 °C | Delta t (Mus musculus [29]): 0.1 °C | Delta t (Mus musculus [30]): 0.4 °C | LLR score (Rattus norvegicus [31]): 1.1 | LLR score (Rattus norvegicus [32]): 2.3 | Delta t (Mus musculus [33]): 0.1 °C | Delta t (Mus musculus [34]): 0.1 °C | LLR score (Rattus norvegicus [35]): 0.6 | Delta t (Mus musculus [36]): 0.2 °C | Delta t (Mus musculus [37]): 0.7 °C | Delta t (Mus musculus [38]): 0.4 °C | Delta t (Mus musculus [39]): 0.3 °C
